Experimental data as given in patent US7517517B2 (Janssen Pharmaceutica N.V., priority 2002, dated 2009).
Blank lines part the entries; values can stand above or below the compound they belong to.

How the values were obtained:
[1] = target: T1, rat mGlu2 receptor (Rattus norvegicus, UniProt P31421); assay: [35S]GTPγS binding to membranes from CHO-dhfr− cells expressing the rat mGlu2 receptor; format: biochemical
T1 construct: host or cells: CHO-dhfr- cells
Experimental: (§1) Confluent cells were washed in ice-cold phosphate-buffered saline and stored at −20° C. until membrane preparation. After thawing, cells were suspended in 50 mM Tris-HCl, pH 7.4 and collected through centrifugation for 10 min at 23,500 g at 4° C. The cells were lysed in 10 mM hypotonic Tris-HCl, pH 7.4. After recentrifugation for 20 min at 30,000 g at 4° C., the pellet was homogenized with an Ultra Turrax homogenizer in 50 mM Tris-HCl, pH 7.4. Protein concentrations were measured by the Bio-Rad protein assay using bovine serum albumin as standard.
(§2) Membranes were thawed on ice and diluted in 10 mM HEPES acid, 10 mM HEPES salt, pH 7.4, containing 100 mM NaCl, 3 mM MgCl2, 3 μM GDP and 10 μg/ml saponine. Assay mixtures contained 10 μg of membrane protein and were pre-incubated with compounds or buffer for 5 min at 37° C. […] [^35S]GTPγS was added to a final concentration of 0.1 nM for another 30 min at 37° C. Reactions were terminated by rapid filtration through Unifilter-96 GF/B filter plates (Packard, Meriden, Conn.) using a 96-well Packard filtermate harvester. Filters were washed 2 times with ice-cold 10 mM NaH2PO4/10 mM Na2HPO4 buffer, pH 7.4. Filter-bound radioactivity was counted in a Microplate Scintillation and Luminesence Counter from Packard.

[2] = target: T2, rat mGlu5 receptor (Rattus norvegicus, UniProt P31424); assay: Intracellular Ca2+ response in rat mGlu5 receptor expressing CHO-dhfr− cells (FLIPR); format: cell-based; details: tested up to a concentration of 10 μM
T2 construct: host or cells: CHO-dhfr- cells
Experimental: L929sA cells stably expressing the human mGlu1a receptor were obtained as described in Lavreysen et al., Mol. Pharmacol. 61:1244-1254, 2002 and were cultured in Glutamax-I medium supplemented with 10% heat inactivated dialysed foetal calf serum, 0.1 mg/ml streptomycin sulphate and 100 units/ml penicillin. CHO-dhfr^− cells stably expressing the rat mGlu1a, -2, -3, -4, -5 and -6 receptor were a kind gift from S. Nakanishi (Tokyo University, Japan) and were grown in DMEM with Glutamax-I with 10% heat inactivated dialysed foetal calf serum, 0.4 mM L-prolin, 0.2 mg/ml streptomycin sulphate and 200 units/ml penicillin. Cells were kept in an atmosphere of 37° C. and 5% CO2.
Intracellular calcium ion levels ([Ca^2+]i) in human mGlu1a receptor expressing L929sA cells were measured using the Fluorometric Imaging Plate Reader (FLIPR, Molecular Devices, CA, USA), as described in Lavreysen et al., Mol. Pharmacol. 61:1244-1254, 2002. The same procedure was followed for CHO-dhfr^− cells expressing the rat mGlu1a receptor. For the rat mGlu5 receptor, cells were seeded at 30.000 cells/well 2 days before the experiment.

[3] = target: T3, human mGlu1a receptor (Homo sapiens, UniProt Q13255); assay: Intracellular Ca2+ response in human mGlu1a receptor expressing L929sA cells (FLIPR); format: cell-based
T3 construct: expressed in transfected cells; host or cells: L929sA cells

[4] = target: T4, rat mGlu1a receptor (Rattus norvegicus, UniProt P23385); assay: Intracellular Ca2+ response in rat mGlu1a receptor expressing CHO-dhfr− cells (FLIPR); format: cell-based
T4 construct: host or cells: CHO-dhfr- cells
T4 sequence (P23385 19-1199): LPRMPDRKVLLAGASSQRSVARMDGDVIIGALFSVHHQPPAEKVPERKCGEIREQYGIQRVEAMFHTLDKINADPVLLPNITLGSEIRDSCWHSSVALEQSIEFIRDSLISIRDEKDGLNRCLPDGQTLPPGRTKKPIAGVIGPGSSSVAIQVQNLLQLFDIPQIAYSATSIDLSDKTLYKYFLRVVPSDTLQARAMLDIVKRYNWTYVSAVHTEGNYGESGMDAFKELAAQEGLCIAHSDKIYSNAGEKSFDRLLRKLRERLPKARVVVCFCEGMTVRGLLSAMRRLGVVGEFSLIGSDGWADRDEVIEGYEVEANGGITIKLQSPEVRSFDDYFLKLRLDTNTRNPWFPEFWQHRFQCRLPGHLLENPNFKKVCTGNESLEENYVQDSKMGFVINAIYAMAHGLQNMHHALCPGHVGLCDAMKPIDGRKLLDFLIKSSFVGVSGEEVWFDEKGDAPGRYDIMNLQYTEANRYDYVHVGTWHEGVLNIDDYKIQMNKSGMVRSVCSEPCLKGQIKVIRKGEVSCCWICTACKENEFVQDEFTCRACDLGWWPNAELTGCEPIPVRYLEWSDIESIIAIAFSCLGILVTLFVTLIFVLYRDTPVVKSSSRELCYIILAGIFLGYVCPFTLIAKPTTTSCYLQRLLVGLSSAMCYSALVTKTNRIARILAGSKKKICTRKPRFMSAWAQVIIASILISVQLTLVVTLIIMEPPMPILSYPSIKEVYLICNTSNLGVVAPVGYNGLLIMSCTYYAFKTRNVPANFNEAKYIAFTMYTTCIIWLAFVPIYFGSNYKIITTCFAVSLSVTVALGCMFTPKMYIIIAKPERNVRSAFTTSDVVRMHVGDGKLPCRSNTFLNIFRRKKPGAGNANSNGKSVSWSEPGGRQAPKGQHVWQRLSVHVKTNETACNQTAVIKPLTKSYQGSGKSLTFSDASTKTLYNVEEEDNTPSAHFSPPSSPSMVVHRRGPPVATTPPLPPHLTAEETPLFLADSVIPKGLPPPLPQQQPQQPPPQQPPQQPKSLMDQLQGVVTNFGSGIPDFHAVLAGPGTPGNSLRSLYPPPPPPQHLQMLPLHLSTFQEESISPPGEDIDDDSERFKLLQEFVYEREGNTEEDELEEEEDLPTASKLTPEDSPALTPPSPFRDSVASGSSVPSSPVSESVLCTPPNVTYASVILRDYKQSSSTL

[5] = target: T5, glycine site of the NMDA receptor (Rattus norvegicus, UniProt P35439); assay: [3H]L689560 binding to rat forebrain membranes; details: [3H]L689560, rat forebrain; tested up to 10 μM
T5 construct: from tissue; host or cells: rat forebrain membranes
Experimental: (§3) Tissue preparation. Male Wistar rats (˜200 g) were sacrificed by decapitation. The brains were rapidly removed and forebrain was dissected. The tissue was homogenized with an Ultra Turrax in 20 volumes of ice-cold H2O and was centrifuged at 48,000 g for 20 min. After homogenisation using a DUAL homogeniser, membranes were washed by centrifugation at 48,000 g for 10 min. The pellet was then suspended in 20 volumes of 50 mM Tris-HCl, pH 7.4 containing 0.04% Triton X-100 and again centrifuged at 48,000 g for 20 min. The final pellet was frozen at −80° C.
(§4) In vitro binding assay. At the day of the experiment, the pellet was thawed, washed and rehomogenised using a DUAL in ice-cold 50 mM Tris-acetate, pH 7.4. Assay conditions for the different radioligands were as follows. The final concentration of membrane in the assay was 20 mg/ml (wet weight) for [^3H]Ro 48-8587 and [^3H]L689560 and was 10 mg/ml (wet weight) for [^3H]CGP39653 and [^3H]MK-801. Radioligand concentrations of 2 nM [^3H]Ro 48-8587, 2 nM [^3H]L689560, 2 nM [^3H]CGP39653 and 3 nM [^3H]MK-801 were used. […] For [^3H]L689560 and [^3H]MK-801 binding, 100 μM D-serine or 10 μM phencyclidine were used to define non-specific binding, respectively. […] Radioactivity collected on the filters was counted as above.

[6] = target: T6, rat mGlu4 receptor (Rattus norvegicus, UniProt P31423); assay: [35S]GTPγS binding to membranes from CHO-dhfr− cells expressing the rat mGlu4 receptor; format: biochemical
T6 construct: host or cells: CHO-dhfr- cells
T6 sequence (P31423 33-912): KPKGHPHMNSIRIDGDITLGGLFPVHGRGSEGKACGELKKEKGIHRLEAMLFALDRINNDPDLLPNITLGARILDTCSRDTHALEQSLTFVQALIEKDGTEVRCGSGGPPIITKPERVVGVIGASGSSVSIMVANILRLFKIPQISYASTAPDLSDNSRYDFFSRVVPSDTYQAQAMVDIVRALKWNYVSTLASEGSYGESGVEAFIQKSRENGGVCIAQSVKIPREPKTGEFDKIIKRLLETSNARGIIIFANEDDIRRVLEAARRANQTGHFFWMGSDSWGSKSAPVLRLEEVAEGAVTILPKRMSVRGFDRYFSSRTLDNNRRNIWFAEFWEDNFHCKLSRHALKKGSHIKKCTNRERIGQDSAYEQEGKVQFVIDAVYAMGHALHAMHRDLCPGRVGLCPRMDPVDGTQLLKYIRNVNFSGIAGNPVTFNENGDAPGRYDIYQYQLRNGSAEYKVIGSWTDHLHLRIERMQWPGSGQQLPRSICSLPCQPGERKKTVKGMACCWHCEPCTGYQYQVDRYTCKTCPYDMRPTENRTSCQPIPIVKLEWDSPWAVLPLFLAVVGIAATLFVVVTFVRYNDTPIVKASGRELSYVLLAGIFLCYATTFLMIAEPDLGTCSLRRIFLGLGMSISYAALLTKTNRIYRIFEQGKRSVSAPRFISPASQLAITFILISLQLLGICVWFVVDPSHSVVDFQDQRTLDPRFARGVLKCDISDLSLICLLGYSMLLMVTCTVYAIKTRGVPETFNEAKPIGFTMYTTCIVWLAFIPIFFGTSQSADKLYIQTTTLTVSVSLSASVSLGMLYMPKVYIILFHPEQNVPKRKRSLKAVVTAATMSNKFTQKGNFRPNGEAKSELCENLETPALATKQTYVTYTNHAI
Experimental: as §1, §2

[7] = target: T4, rat mGlu1a receptor; assay: [3H]quisqualate binding to rat mGlu1a receptor CHO-dhfr− membranes (saturation, inhibition)
[8] = target: T4, rat mGlu1a receptor; assay: [3H]Compound A binding to rat mGlu1a receptor CHO-dhfr− membranes (saturation, kinetics, inhibition); details: mean ± SD of 3–4 experiments
[9] = target: T4, rat mGlu1a receptor; assay: IP response (basal IP accumulation) in rat mGlu1a receptor expressing CHO-dhfr− cells; format: cell-based
[10] = test system: AMPA receptor; assay: [3H]Ro 48-8587 binding to rat forebrain membranes; details: [3H]Ro 48-8587, rat forebrain; tested up to 10 μM
Experimental: as §3, §4

[11] = target: T7, rat mGlu6 receptor (Rattus norvegicus, UniProt P35349); assay: [35S]GTPγS binding to membranes from CHO-dhfr− cells expressing the rat mGlu6 receptor; format: biochemical
T7 construct: host or cells: CHO-dhfr- cells
T7 sequence (P35349 24-871): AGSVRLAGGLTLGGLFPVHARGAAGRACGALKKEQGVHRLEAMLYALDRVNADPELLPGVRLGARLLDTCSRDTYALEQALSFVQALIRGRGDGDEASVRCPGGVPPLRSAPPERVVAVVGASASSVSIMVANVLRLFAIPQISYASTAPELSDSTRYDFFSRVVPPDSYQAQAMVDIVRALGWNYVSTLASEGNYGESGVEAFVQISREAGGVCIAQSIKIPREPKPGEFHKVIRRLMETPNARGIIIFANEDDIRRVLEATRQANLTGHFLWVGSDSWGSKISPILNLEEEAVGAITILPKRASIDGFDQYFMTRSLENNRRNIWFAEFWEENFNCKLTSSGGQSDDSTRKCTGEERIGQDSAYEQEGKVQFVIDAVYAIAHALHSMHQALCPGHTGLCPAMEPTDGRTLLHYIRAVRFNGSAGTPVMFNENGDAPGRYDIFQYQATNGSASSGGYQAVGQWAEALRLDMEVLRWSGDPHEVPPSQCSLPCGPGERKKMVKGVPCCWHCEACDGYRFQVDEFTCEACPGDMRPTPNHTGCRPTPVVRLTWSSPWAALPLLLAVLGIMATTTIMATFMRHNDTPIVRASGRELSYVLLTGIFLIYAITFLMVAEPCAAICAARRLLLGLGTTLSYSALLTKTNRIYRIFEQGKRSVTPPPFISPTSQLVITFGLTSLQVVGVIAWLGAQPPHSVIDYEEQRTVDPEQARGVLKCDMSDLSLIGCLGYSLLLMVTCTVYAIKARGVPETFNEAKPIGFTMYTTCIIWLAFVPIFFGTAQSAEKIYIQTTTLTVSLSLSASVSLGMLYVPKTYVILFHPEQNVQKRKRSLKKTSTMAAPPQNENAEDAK
Experimental: as §1, §2

[12] = test system: glutamate site of the NMDA receptor; assay: [3H]CGP39653 binding to rat forebrain membranes; details: [3H]CGP39653, rat forebrain; tested up to 10 μM
Experimental: as §3, §4

[13] = target: T8, rat mGlu3 receptor (Rattus norvegicus, UniProt P31422); assay: [35S]GTPγS binding to membranes from CHO-dhfr− cells expressing the rat mGlu3 receptor; format: biochemical
T8 construct: host or cells: CHO-dhfr- cells
T8 sequence (P31422 23-879): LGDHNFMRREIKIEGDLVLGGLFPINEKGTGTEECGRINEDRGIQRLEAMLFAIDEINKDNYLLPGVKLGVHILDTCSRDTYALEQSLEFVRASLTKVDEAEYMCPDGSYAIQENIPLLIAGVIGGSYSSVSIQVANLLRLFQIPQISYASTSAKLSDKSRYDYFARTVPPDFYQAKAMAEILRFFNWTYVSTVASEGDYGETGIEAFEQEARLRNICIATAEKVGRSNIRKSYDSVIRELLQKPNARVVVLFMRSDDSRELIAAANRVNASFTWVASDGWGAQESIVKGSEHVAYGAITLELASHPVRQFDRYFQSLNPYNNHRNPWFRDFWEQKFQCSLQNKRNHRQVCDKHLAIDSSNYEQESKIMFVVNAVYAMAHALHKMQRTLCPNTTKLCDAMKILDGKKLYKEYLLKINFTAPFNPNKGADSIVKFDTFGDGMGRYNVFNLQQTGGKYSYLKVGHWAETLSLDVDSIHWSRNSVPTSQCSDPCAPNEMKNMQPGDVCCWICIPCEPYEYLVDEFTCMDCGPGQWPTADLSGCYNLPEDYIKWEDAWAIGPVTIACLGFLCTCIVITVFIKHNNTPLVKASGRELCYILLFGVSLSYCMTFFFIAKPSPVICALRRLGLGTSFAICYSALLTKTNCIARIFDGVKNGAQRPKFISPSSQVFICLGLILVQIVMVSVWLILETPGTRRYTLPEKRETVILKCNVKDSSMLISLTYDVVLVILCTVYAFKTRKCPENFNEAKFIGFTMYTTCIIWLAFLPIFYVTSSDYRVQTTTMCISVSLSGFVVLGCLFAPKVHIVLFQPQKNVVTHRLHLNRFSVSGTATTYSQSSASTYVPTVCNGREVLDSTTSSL
Experimental: as §1, §2

[14] = target: T2, rat mGlu5 receptor; assay: [3H]MPEP binding to rat mGlu5 receptor CHO-dhfr− membranes; details: rat mGlu5 receptor containing membranes; positive control
[15] = read-out: IC50 for inhibition of glutamate-induced [35S]GTPγS activation
[16] = ratio of IC50 values, rat mGlu1a Ca2+ assay

T1 sequence (P31421 19-872): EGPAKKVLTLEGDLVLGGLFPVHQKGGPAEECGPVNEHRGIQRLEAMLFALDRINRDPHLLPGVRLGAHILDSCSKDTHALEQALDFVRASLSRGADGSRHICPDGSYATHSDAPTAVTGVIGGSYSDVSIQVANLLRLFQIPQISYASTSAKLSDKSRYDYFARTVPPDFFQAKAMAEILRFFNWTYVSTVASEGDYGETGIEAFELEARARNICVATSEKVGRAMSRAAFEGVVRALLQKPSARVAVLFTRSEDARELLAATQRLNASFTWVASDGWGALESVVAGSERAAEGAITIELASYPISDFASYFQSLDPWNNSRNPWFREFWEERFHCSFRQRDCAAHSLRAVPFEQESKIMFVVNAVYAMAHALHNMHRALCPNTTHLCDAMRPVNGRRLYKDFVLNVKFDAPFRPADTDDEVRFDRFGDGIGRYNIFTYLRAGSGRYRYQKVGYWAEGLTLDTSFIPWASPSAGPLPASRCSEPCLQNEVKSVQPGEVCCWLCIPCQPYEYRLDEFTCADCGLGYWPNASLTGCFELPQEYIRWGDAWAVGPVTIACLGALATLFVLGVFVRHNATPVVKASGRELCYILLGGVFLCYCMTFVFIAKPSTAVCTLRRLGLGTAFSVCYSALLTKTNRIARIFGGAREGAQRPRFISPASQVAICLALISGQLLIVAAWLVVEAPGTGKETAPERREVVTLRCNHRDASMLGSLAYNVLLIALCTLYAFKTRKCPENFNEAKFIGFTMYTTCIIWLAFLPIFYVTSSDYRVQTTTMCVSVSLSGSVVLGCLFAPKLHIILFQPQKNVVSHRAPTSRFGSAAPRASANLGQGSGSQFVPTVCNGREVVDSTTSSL

Structure (SMILES): O=C(Cc1ccccc1)c1ccc2nc3c(cc2c1)CCCO3 [Compound A]
glutamate Emax upon addition of compound (positive allosteric modulation) ([1]; 10 μM compound together with glutamate, rat mGlu2): not increased | IC50 [1, 15]: > 30 µM | agonist activity in [35S]GTPγS assay ([1]; up to 30 μM, rat mGlu2): did not exhibit agonist activity | inhibition of glutamate-induced Ca2+ signaling [2]: did not inhibit | IC50 [3]: 0.0104 ± 0.0047 µM | mode of antagonism ([4]; glutamate concentration-response curve in absence and presence of compound (FIG. 1B)): non-competitive | inhibition of mGlu1a receptor-mediated signalling ([4]; in the presence of 100 nM-1 μM compound): Complete inhibition | times more potent than BAY 36-7620 [4, 16]: about 8 times | times more potent than CPCCOEt [4, 16]: ~500 times | IC50 ([4]; read-out: IC50, inhibition of the glutamate-induced increase in [Ca2+]i): 0.0216 ± 0.005 µM | binding to the glycine site of the NMDA receptor [5]: nor did it bind | glutamate Emax upon addition of compound (positive allosteric modulation) ([6]; 10 μM compound together with glutamate, rat mGlu4): not increased | IC50 [6, 15]: > 30 µM | agonist activity in [35S]GTPγS assay ([6]; up to 30 μM, rat mGlu4): did not exhibit agonist activity | Ki [7]: > 1000 µM | effect on [3H]quisqualate binding (in words) ([7]; rat mGlu1a receptor CHO-dhfr− membranes): did not displace | Ki ([8]; 2.5 nM [3H]Compound A, 30 min at 4° C.): 1.35 ± 0.99 nM | Hill coefficient ([8]; inhibition of [3H]Compound A-binding): 0.94 ± 0.04 | decrease of basal IP accumulation ([9]; 1 μM compound, p<0.05): 24±4% | maximal decrease of basal IP accumulation ([9]; 100 μM compound): 33±3% | binding to the AMPA receptor [10]: did not bind | glutamate Emax upon addition of compound (positive allosteric modulation) ([11]; 10 μM compound together with glutamate, rat mGlu6): not increased | IC50 [11, 15]: > 30 µM | agonist activity in [35S]GTPγS assay ([11]; up to 30 μM, rat mGlu6): did not exhibit agonist activity | binding to the glutamate site of the NMDA receptor [12]: nor did it bind | glutamate Emax upon addition of compound (positive allosteric modulation) ([13]; 10 μM compound together with glutamate, rat mGlu3): not increased | IC50 [13, 15]: > 30 µM | agonist activity in [35S]GTPγS assay ([13]; up to 30 μM, rat mGlu3): did not exhibit agonist activity

specific binding [14]: 95%
Structure (SMILES): Cc1cccc(C#Cc2ccccc2)n1 [[^3H]MPEP]
